# Article PMC4219730 (PLoS ONE, 2014)
# Read-outs that look alike come from different tables or passages of the source.
# Assays:
# SSTR in CH-157MN cells = assay: Homologous competitive binding with [^125I]-somatostatin-28 in CH-157MN meningioma cells; design: species or system human; conditions: 0.5 nM [^125I]-somatostatin-28, 37°C, 1 hour, mean ± SEM, three independent experiments in triplicate, read-out: IC50 (concentration of cold ligand that reduces specific binding of radioligand by 50%)
# Method: Affinity was determined from three independent experiments performed in triplicate and was measured by means of a homologous competitive binding experiment according to Motulsky and Neubig. The IC50 (concentration of cold ligand [somatostatin-28] that reduces specific binding of radioligand by 50%) was determined by competitive binding assays with [^125I]-somatostatin-28 (Amersham Pharmacia Biotech, UK) in CH-157MN meningioma cells. Briefly, cells were incubated into a 24-well cell culture plate (2–2.5×10^5 cells/well) at 37°C for 1 hour in a CO2 incubator with 0.5 nM [^125I]-somatostatin-28 (Amersham Pharmacia Biotech, UK) in the presence of increasing concentrations of somatostatin-28 (0.1 nM-10 µM) in 0.25 ml of binding media (DMEM, 2 mM L-glutamine, 50 units/ml penicillin and 50 µg/ml streptomycin). The reaction medium was aspirated after incubation. Cells were rinsed with 0.5 ml of ice-cold PBS twice and lysed in 0.5 ml of 1 N NaOH for five minutes. The activity in cells was measured in a Packard Cobra II gamma counter. The competitive binding curves were obtained by plotting the [^125I]-somatostatin-28 bound to cells against concentrations of cold ligand. IC50 and maximum numbers of binding sites (Bmax) were calculated using Origin 7.5 software (OriginLab Corporation, Northampton, Massachusetts, USA).
# [1] = system: xenografts of a human meningioma cell line (CH-157MN); assay: Static PET/CT study: SUVmax and SUV ratios in mice bearing meningioma xenografts; format: in vivo, NUDE NU/NU mice; conditions: for T/L SUV ratio (tumor-to-liver): SUVmax of tumor normalized to SUVmax of liver, p<0.001; for Visualization of flank tumors in PET/CT images: comparative PET/CT images of the same animal
# Method: (§1) Animals were scanned on a small-animal PET scanner (ARGUS PET-CT, SEDECAL, Madrid, Spain) under anesthesia (isoflurane, 3% induction and 1.5% maintenance in 100% O2). Imaging was performed 7–28 days after tumor cell inoculation. […] Half of the animals imaged with ^68Ga-DOTATOC were also imaged with the other two radiotracers in alternate days with respect to ^68Ga-DOTATOC (Figure 1).
# (§2) Frames corresponding to the last 60 minutes of the study were summed to form a static image. Images were reconstructed using the 2D–OSEM (Ordered Subset Expectation Maximization) algorithm (16 subsets and two iterations), which yields a spatial resolution for this scanner of 1.45 mm Full Width at Half Maximum (FWHM), with a voxel size of 0.3875×0.3875×0.7750 mm^3. The energy window was 400–700 keV. Decay and deadtime corrections were applied.
# Three 3D ROIs were drawn manually on the CT image, one for each tissue of interest (tumor, liver, and muscle), plus a background ROI outside the body area. Since the CT images are intrinsically registered to the PET images, the ROIs drawn on the CT image were directly overlaid on the PET image after correction for the different image sizes. The assessment of PET data included calculation of the maximum standard uptake value (SUVmax) on the static tomographic study and computation of the volume of distribution (Vt) from the dynamic study.
# Tumor, muscle, and liver SUVmax values at 30–90 minutes post-injection were recorded. […] The SUVmax of the tumor lesions was normalized to the SUVmax of the liver (T/L) and muscle (T/M). The T/L and T/M SUV ratios were considered markers of the ability of the radiopharmaceutical to localize in the tumor.
# SSTR2 = conditions: cited from earlier work
# [2] = design: method as in PMID 12937948; conditions: comparison between tracers; cited from earlier work
# SSTR3 = conditions: cited from earlier work
# SSTR5 = conditions: cited from earlier work
# [3] = system: xenografts of a human meningioma cell line (CH-157MN); assay: Dynamic PET study: volume of distribution (Vt) by Logan graphical analysis; format: in vivo, NUDE NU/NU mice; conditions: two-tissue reversible compartmental model, comparison between radiotracers
# Method: as §1, §2
# Three 3D ROIs were drawn manually on the CT image, one for each tissue of interest (tumor, liver, and muscle), plus a background ROI outside the body area. Since the CT images are intrinsically registered to the PET images, the ROIs drawn on the CT image were directly overlaid on the PET image after correction for the different image sizes. […]
# Vt was calculated from dynamic PET data using standard Logan graphical analysis for a two-tissue reversible compartmental model. […]
# [4] = comparison between radiotracers
substance,measurement,setting,value
somatostatin-28,IC50,SSTR in CH-157MN cells,0.0637 ± 0.0323 µM
^68Ga-DOTA -Tyr^3-octreotide [^68Ga-DOTATOC],T/L SUV ratio (tumor-to-liver),[1]; [4],No differences were found between ^68Ga-DOTATATE and ^68Ga-DOTATOC
same,Visualization of flank tumors in PET/CT images,[1],better visualized
same,Affinity for SSTR2,SSTR2,high affinity
^68Ga-DOTA-Nal^3-octreotide [^68Ga-DOTANOC],Lipophilicity,[2],more lipophilic than ^68Ga-DOTATATE and ^68Ga-DOTATOC
same,Affinity for SSTR2,SSTR2; comparison with ^68Ga-DOTATOC,higher affinity for SSTR2 than ^68Ga-DOTATOC
same,Affinity for SSTR3,SSTR3,has affinity for SSTR3 and SSTR5
same,Affinity for SSTR5,SSTR5,has affinity for SSTR3 and SSTR5
^68Ga-DOTA-Tyr^3-octreotate [^68Ga-DOTATATE],T/L SUV ratio (tumor-to-liver),[1]; [4],No differences were found between ^68Ga-DOTATATE and ^68Ga-DOTATOC
same,T/M SUV ratio (tumor-to-muscle),"[1]; SUVmax of tumor normalized to SUVmax of muscle, comparison between radiotracers",higher than that of ^68Ga-DOTATOC (p<0.01) and ^68Ga-DOTANOC (p<0.05)
same,Visualization of flank tumors in PET/CT images,[1],better visualized
same,Affinity for SSTR2,SSTR2,high affinity
same,Vt tumor,[3],higher with ^68Ga-DOTATATE than with ^68Ga-DOTANOC and relatively similar to that of ^68Ga-DOTATOC
